Experimental data from the supplement of paper PMC5662764.
± gives the standard deviation of the averaged measurements.

Assays:
Assay in all cases: normalised growth rate inhibition (GR value) relative to DMSO control (GR (1 = untreated growth, 0 = cytostasis, <0 = cytotoxic)); higher = less growth inhibition
Details in all cases: 72 h
MDAMB231 = system: MDAMB231
Protocol: (§1)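 Breast cancer cell lines (BT-20, Hs 578T, MCF 10A, MCF7, MDA-MB-231, SK-BR-3) were plated in 384-well plates and treated 24 h later with drugs at six concentrations (0.04-10 µM). Viable cells were counted by Hoechst/dead-cell-stain imaging at 0 and 72 h. Counts were normalised to DMSO controls on the same plate to give the relative cell count and the growth-rate inhibition (GR) value; technical plate triplicates were averaged for each biological replicate.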

MCF10A = system: MCF10A
Protocol: as §1

BT20 = system: BT20
Protocol: as §1

MCF7 = system: MCF7
Protocol: as §1

SKBR3 = system: SKBR3
Protocol: as §1

HS578T = system: HS578T
Protocol: as §1

Row | Compound | normalised growth rate inhibition (MDAMB231; 0.04 µM) | normalised growth rate inhibition (MDAMB231; 0.12 µM) | normalised growth rate inhibition (MDAMB231; 0.37 µM) | normalised growth rate inhibition (MDAMB231; 1.11 µM) | normalised growth rate inhibition (MDAMB231; 3.33 µM) | normalised growth rate inhibition (MDAMB231; 10 µM) | normalised growth rate inhibition (MCF10A; 0.04 µM) | normalised growth rate inhibition (MCF10A; 0.12 µM) | normalised growth rate inhibition (MCF10A; 0.37 µM) | normalised growth rate inhibition (MCF10A; 1.11 µM) | normalised growth rate inhibition (MCF10A; 3.33 µM) | normalised growth rate inhibition (MCF10A; 10 µM) | normalised growth rate inhibition (BT20; 0.04 µM) | normalised growth rate inhibition (BT20; 0.12 µM) | normalised growth rate inhibition (BT20; 0.37 µM) | normalised growth rate inhibition (BT20; 1.11 µM) | normalised growth rate inhibition (BT20; 3.33 µM) | normalised growth rate inhibition (BT20; 10 µM) | normalised growth rate inhibition (MCF7; 0.04 µM) | normalised growth rate inhibition (MCF7; 0.12 µM) | normalised growth rate inhibition (MCF7; 0.37 µM) | normalised growth rate inhibition (MCF7; 1.11 µM) | normalised growth rate inhibition (MCF7; 3.33 µM) | normalised growth rate inhibition (MCF7; 10 µM) | normalised growth rate inhibition (SKBR3; 0.04 µM) | normalised growth rate inhibition (SKBR3; 0.12 µM) | normalised growth rate inhibition (SKBR3; 0.37 µM) | normalised growth rate inhibition (SKBR3; 1.11 µM) | normalised growth rate inhibition (SKBR3; 3.33 µM) | normalised growth rate inhibition (SKBR3; 10 µM) | normalised growth rate inhibition (HS578T; 0.04 µM) | normalised growth rate inhibition (HS578T; 0.12 µM) | normalised growth rate inhibition (HS578T; 0.37 µM) | normalised growth rate inhibition (HS578T; 1.11 µM) | normalised growth rate inhibition (HS578T; 3.33 µM) | normalised growth rate inhibition (HS578T; 10 µM)
1 | Cc1ccc(F)c(NC(=O)Nc2ccc(-c3cccc4[nH]nc(N)c34)cc2)c1 [linifanib] | 1.08 ± 0.014 | 1.09 ± 0.03 | 1.08 ± 0.045 | 1.07 ± 0.053 | 1.06 ± 0.045 | 0.192 ± 0.29 | 1.039 ± 0.0077 | 1.032 ± 0.0048 | 1.02 ± 0.012 | 1.02 ± 0.014 | 0.994 ± 0.029 | 0.716 ± 0.24 | 1.09 ± 0.014 | 1.07 ± 0.039 | 1.07 ± 0.032 | 1.08 ± 0.026 | 1.03 ± 0.011 | 0.544 ± 0.37 | 1.07 ± 0.12 | 0.996 ± 0.14 | 1.01 ± 0.12 | 0.939 ± 0.079 | 0.874 ± 0.061 | 0.0601 ± 0.092 | 1.11 ± 0.046 | 1.08 ± 0.025 | 1.11 ± 0.043 | 1.1 ± 0.078 | 1.09 ± 0.078 | 0.232 ± 0.072 | 0.995 ± 0.011 | 0.979 ± 0.011 | 0.971 ± 0.025 | 0.969 ± 0.015 | 0.9497 ± 0.0069 | 0.701 ± 0.13
2 | Cc1cn(-c2cc(NC(=O)c3ccc(C)c(Nc4nccc(-c5cccnc5)n4)c3)cc(C(F)(F)F)c2)cn1 [nilotinib] | 0.943 ± 0.038 | 0.914 ± 0.099 | 0.863 ± 0.1 | 0.805 ± 0.14 | 0.818 ± 0.13 | 0.00998 ± 0.16 | 1 ± 0.036 | 0.991 ± 0.035 | 0.978 ± 0.029 | 0.992 ± 0.044 | 0.982 ± 0.035 | 0.507 ± 0.14 | 1 ± 0.043 | 1.01 ± 0.044 | 1.02 ± 0.039 | 0.996 ± 0.043 | 1 ± 0.039 | 0.0181 ± 0.099 | 1.03 ± 0.021 | 1.04 ± 0.038 | 0.971 ± 0.021 | 0.958 ± 0.014 | 0.956 ± 0.059 | 0.0407 ± 0.15 | 1.1 ± 0.074 | 1.11 ± 0.043 | 1.15 ± 0.029 | 1.11 ± 0.052 | 1.08 ± 0.068 | 0.208 ± 0.097 | 1.09 ± 0.056 | 1.1 ± 0.072 | 1.09 ± 0.078 | 1.07 ± 0.06 | 1.07 ± 0.093 | 0.028 ± 0.096
